The numbers were not newly measured in patent US20220370332A1, “PRODUCT FOR DYEING KERATINOUS MATERIAL, CONTAINING AMINOSILICONE, A CHROMOPHORIC COMPOUND, PRESERVATIVE AND ETHOXYLATED FATTY ALCOHOL” (Henkel AG & Co. KGaA, priority 2019, published 2022), which cites them from elsewhere.

SMILES strings stand for the structures.

For this data set the following is noted: 25° C.
For the molecule `CCN(Cc1cccc(S(=O)(=O)[O-])c1)c1ccc(C(=C2C=CC(=[N+](CC)Cc3cccc(S(=O)(=O)[O-])c3)C=C2)c2ccccc2S(=O)(=O)[O-])cc1.[Na+].[Na+]` [Acid Blue 9], the solubility in water result is recorded as “more than 20 % by weight”.

For the molecule `O=S(=O)([O-])c1ccc(N=Nc2c(O)ccc3ccccc23)cc1.[Na+]` [Acid Orange 7, sodium salt of 4-[(2-hydroxy-1-naphthyl)azo]benzene sulphonate], the solubility in water result is “more than 7 g/L”. On to `Nc1cc(S(=O)(=O)[O-])cc2cc(S(=O)(=O)[O-])c(N=Nc3ccccc3)c(O)c12.[Na+].[Na+]` [Acid Red 33, diantrium salt of 5-amino-4-hydroxy-3-(phenylazo)-naphthalene-2,7-disulphonate], for which the solubility in water was 2500 µg/mL.

As for `O=C([O-])c1c(Cl)c(Cl)c(Cl)c(Cl)c1-c1c2c(Br)cc(=O)c(Br)c-2oc2c(Br)c(O)cc(Br)c12.O=C([O-])c1c(Cl)c(Cl)c(Cl)c(Cl)c1-c1c2c(Br)cc(=O)c(Br)c-2oc2c(Br)c(O)cc(Br)c12.[Na+].[Na+]` [Acid Red 92, disodium salt of 3,4,5,6-tetrachloro-2-(1,4,5,8-tetrabromo-6-hydroxy-3-oxoxanthen-9-yl)benzoic acid], the solubility in water entry is reported as “greater than 10 g/L”.

Take `O=C([O-])C1=NN(c2ccc(S(=O)(=O)[O-])cc2)C(=O)C1N=Nc1ccc(S(=O)(=O)[O-])cc1.[Na+].[Na+].[Na+]` (centres unmarked) [Acid Yellow 23, trisodium salt of 4,5-dihydro-5-oxo-1-(4-sulfophenyl)-4-((4-sulfophenyl)azo)-1H-pyrazole-3-carboxylic acid]: the “solubility in water” value is given as “highly soluble in water”.
